Measurements as given in article PMC11249646, “Small-Molecule Disruptors of the Interaction between Calcium- and Integrin-Binding Protein 1 and Integrin αIIbβ3 as Novel Antiplatelet Agents” (ACS Pharmacology & Translational Science, 2024).
Where two headings read alike, the source gives them in different places.

Assays:
[1] = biological target: T1, CIB1 and αIIb interaction (CIB1-GST : F-αIIb peptide) (Homo sapiens, UniProt Q99828); assay: FP assay, 1536-well qHTS format (primary and confirmatory screen); format: binding; details: for Curve Class (confirmatory screen) / CONFIRMATORY SCREEN Curve Class: qHTS curve class
T1 construct: made in house; host or cells: BL-21 plus RIL cells (E. coli)
T1 sequence (Q99828 1-191): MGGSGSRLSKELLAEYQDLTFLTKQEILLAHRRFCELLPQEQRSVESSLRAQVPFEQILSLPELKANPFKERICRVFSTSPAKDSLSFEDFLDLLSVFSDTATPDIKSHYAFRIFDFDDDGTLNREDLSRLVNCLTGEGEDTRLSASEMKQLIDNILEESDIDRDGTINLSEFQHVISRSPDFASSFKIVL

[2] = biological target: T2, GST-CIB1 : F-scrambled peptide (Homo sapiens, UniProt Q99828); assay: FP scrambled-peptide counter screen, 1536-well format; format: binding; details: for Curve Class (counterscreen) / COUNTERSCREEN Curve Class: qHTS curve class; for IC50: read-out: IC50 [μM] (counterscreen)
T2 construct: made in house; host or cells: BL-21 plus RIL cells (E. coli)
T2 sequence (Q99828 1-191): T1 sequence (Q99828 1-191)

[3] = Table S3, confirmatory screen, a negative sign marks inhibitory curves
[4] = Table S3, confirmatory screen, negative = inhibition
[5] = qHTS primary screen hits, Table S2, negative = inhibition
[6] = qHTS primary screen hits, Table S2, negative sign = inhibitory curve
[7] = qHTS primary screen hits, Table S2, read-out: IC50
[8] = Table S3, counterscreen, a negative sign marks inhibitory curves
[9] = Table S3, counterscreen, negative = inhibition
[10] = confirmatory screen, negative sign = inhibitory curve
[11] = scrambled-peptide counterscreen
[12] = Table S3, confirmatory screen, YES/NO call
[13] = Table S3, confirmatory screen, read-out: IC50 [μM] (confirmatory screen)
[14] = qHTS primary screen hits, Table S2, negative sign = inhibitory curve, several classes where COUNT > 1
[15] = confirmatory screen, read-out: IC50 [μM] (confirmatory screen)
[16] = counterscreen, negative sign = inhibitory curve
[17] = qHTS FP screen hits, Table S2, negative = inhibition
[18] = qHTS FP screen hits, Table S2, one class per curve where COUNT > 1, negative sign = inhibitory curve
[19] = qHTS FP screen hits, Table S2, read-out: IC50
[20] = Table S3, counterscreen, YES/NO call

Row | SMILES | Curve Class (confirmatory screen) [1, 3] | Efficacy (%) (confirmatory screen) [1, 4] | Efficacy (%) [1, 5] [%] | IC50 [1, 7] [µM] | Curve Class (counterscreen) [2, 8] | Efficacy (%) (counterscreen) [2, 9] | IC50 ([2]; Table S3, counterscreen) [µM] | Curve Class [1, 14] | other results
1 | CCCCCCCCCCCCCCCC[N+](C)(C)CCN(Cc1ccc(OC)cc1)c1ncccn1.[Br-] [NCGC00016507-05] | 4 | -36 | -71 | 79.4 | 3 | 100 | 89.1 | – | Curve Class [1, 6]: -2.2
2 | Cc1ccc(C(=O)Nc2ccc(S(=O)(=O)O)c3cc(S(=O)(=O)O)cc(S(=O)(=O)O)c23)cc1NC(=O)c1cccc(NC(=O)Nc2cccc(C(=O)Nc3cc(C(=O)Nc4ccc(S(=O)(=O)O)c5cc(S(=O)(=O)O)cc(S(=O)(=O)O)c45)ccc3C)c2)c1 [NCGC00163318-03] | – | – | -22 | 0.7 | – | – | – | – | CONFIRMATORY SCREEN Confirm? ([1]; confirmatory screen, YES/NO call): YES; CONFIRMATORY SCREEN Curve Class [1, 10]: -1.4; CONFIRMATORY SCREEN Efficacy (%) ([1]; confirmatory screen, negative = inhibition): -15%; IC50 ([1]; confirmatory screen, read-out: CONFIRMATORY SCREEN IC50): 7.9 µM; Curve Class [1, 6]: -1.4; COUNTERSCREEN Efficacy (%) [2, 11]: 16%; COUNTERSCREEN Confirm? ([2]; scrambled-peptide counterscreen, YES/NO call): YES; COUNTERSCREEN Curve Class [2, 11]: 4
3 | O=C(O)C(F)(F)F.O=C(O)c1ccc(Cc2c(-c3cccc(-c4ccccc4)c3)nn(-c3nc(C(=O)O)cs3)c2O)cc1 [NCGC00356639-01] | -2.2 | -79 | -39 | 39.8 | -2.1 | -99 | 39.8 | -2.2 | Confirm? (confirmatory screen) [1, 12]: YES; IC50 [1, 13]: 50.1 µM
4 | O=C(NNC(=O)c1nc2ccccc2[nH]1)OCc1ccccc1 [NCGC00181216-01] | 4 | -25 | -24 | 22.4 | 4 | -28 | – | -2.4 | –
5 | C[C@H](Cc1ccc(O)c(O)c1)[C@@H](C)Cc1ccc(O)c(O)c1 [NCGC00094201-01] | – | – | -32 | 27.1 | – | – | – | -2.4 | Efficacy (%) (confirmatory screen) ([1]; confirmatory screen): -95%; Confirm? (confirmatory screen) ([1]; confirmatory screen, YES/NO): YES; Curve Class (confirmatory screen) [1, 10]: -2.2; IC50 [1, 15]: 39.8 µM; Efficacy (%) (counterscreen) ([2]; counterscreen): -68%; Curve Class (counterscreen) [2, 16]: -1.2; IC50 ([2]; counterscreen): 12.6 µM
6 | Oc1ccc(Cl)cc1Cc1cc(Cl)ccc1O [NCGC00091325-09] | – | – | – | – | – | – | – | – | Efficacy (%) (confirmatory screen) ([1]; confirmatory screen): -77%; Confirm? (confirmatory screen) ([1]; confirmatory screen, YES/NO): YES; Curve Class (confirmatory screen) [1, 10]: -2.2; IC50 [1, 15]: 44.7 µM; Efficacy (%) [1, 17]: -86%; Curve Class [1, 18]: -2.2; IC50 [1, 19]: 79.4 µM; Efficacy (%) (counterscreen) ([2]; counterscreen): -38%; Curve Class (counterscreen) [2, 16]: -1.2; IC50 ([2]; counterscreen): 10 µM
7 | O=C(O)C(F)(F)F.O=S(=O)(Nc1ccc(N2CCNCC2)cc1)c1ccc(NCc2ccc(Br)cc2O)cc1 [NCGC00343874-01] | -2.4 | -41 | -76 | 79.4 | -2.2 | -58 | 44.7 | -2.2 | Confirm? (confirmatory screen) [1, 12]: YES
8 | N#Cc1ccc(NS(=O)(=O)c2ccc(NC(=O)Cc3ccc(F)c(Cl)c3)cc2)cc1.O=C(O)C(F)(F)F [NCGC00343891-01] | 3 | 72 | -15 | 4 | 3 | 154 | 89.1 | -1.4 | –
9 | Cl.O=[N+]([O-])c1ccc(CNc2ccc(S(=O)(=O)Nc3nccs3)cc2)c(O)c1 [NCGC00273519-01] | – | – | -24 | 7.9 | – | – | – | -1.4 | Efficacy (%) (confirmatory screen) ([1]; confirmatory screen): -67%; Confirm? (confirmatory screen) ([1]; confirmatory screen, YES/NO): YES; Curve Class (confirmatory screen) [1, 10]: -2.4; IC50 [1, 15]: 12.6 µM; Efficacy (%) (counterscreen) ([2]; counterscreen): -48%; Curve Class (counterscreen) [2, 16]: -2.2; IC50 ([2]; counterscreen): 25.1 µM
10 | COc1cccc2nc(-c3cccs3)nc(NN3C(=O)C=C(C)C3=O)c12 [NCGC00161703-02] | – | – | -24 | 3 | – | – | – | – | Efficacy (%) (confirmatory screen) ([1]; confirmatory screen): -63%; Confirm? (confirmatory screen) ([1]; confirmatory screen, YES/NO): YES; Curve Class (confirmatory screen) [1, 10]: -1.4; IC50 [1, 15]: 8.9 µM; Curve Class [1, 6]: -1.4; Efficacy (%) (counterscreen) ([2]; counterscreen): -30%; Curve Class (counterscreen) [2, 16]: -1.4; IC50 ([2]; counterscreen): 17.8 µM
11 | CC(=O)[O][Hg][c]1ccccc1 [NCGC00091050-09] | 4 | 41 | -59 | 7.9 | 2.3 | 145 | – | -1.2 | –
12 | N#Cc1ccc(NS(=O)(=O)c2ccc(NC(=O)Cc3ccc(Cl)c(Cl)c3)cc2)cc1.O=C(O)C(F)(F)F [NCGC00253445-01] | 2.3 | 146 | – | – | – | 202 | 70.8 | – | –
13 | Nc1nc2c(s1)C(c1ccccc1C(F)(F)F)CC(=O)N2.O=C(O)C(F)(F)F (centres unmarked) [NCGC00488247-02] | 4 | -12 | – | – | -2.4 | -39 | 28.2 | – | Efficacy (%) [1, 17]: -83%; Curve Class [1, 18]: -2.2; IC50 [1, 19]: 44.7 µM; Confirm? (counterscreen) [2, 20]: YES
14 | CN1CCCN(C(=O)c2cccc(-c3ccc(/C=C4/C(=O)Nc5ccc(Cl)cc54)o3)c2)CC1 [NCGC00346935-01] | -1.3 | -102 | – | – | -1.1 | -108 | 35.5 | – | Confirm? (confirmatory screen) [1, 12]: YES; IC50 [1, 13]: 35.5 µM; Efficacy (%) [1, 17]: -37%; Curve Class [1, 18]: -2.2; IC50 [1, 19]: 15.2 µM
15 | Fc1ccc(NC(=S)Nc2nnc(-c3ccncc3)s2)cc1C(F)(F)F.O=C(O)C(F)(F)F [NCGC00241743-01] | – | – | – | – | – | – | – | – | CONFIRMATORY SCREEN Efficacy (%) ([1]; confirmatory screen): -35%; CONFIRMATORY SCREEN Curve Class ([1]; confirmatory screen): 4; Efficacy (%) [1, 17]: -41%; Curve Class [1, 18]: -2.2; IC50 [1, 19]: 22.4 µM; COUNTERSCREEN Efficacy (%) ([2]; counterscreen): 39%; COUNTERSCREEN Curve Class ([2]; counterscreen): 4
16 | Cc1nc(C(=O)NCC(=O)O)c(O)c2ccc(Oc3ccccc3)cc12 [NCGC00346527-01] | – | – | -24 | 38.5 | – | – | – | – | CONFIRMATORY SCREEN Efficacy (%) ([1]; confirmatory screen): -26%; CONFIRMATORY SCREEN Curve Class ([1]; confirmatory screen): 4; Curve Class [1, 6]: -2.4; COUNTERSCREEN Efficacy (%) ([2]; counterscreen): 0%; COUNTERSCREEN Curve Class ([2]; counterscreen): 4
17 | Nc1ccc(O)c([N+](=O)[O-])c1 [NCGC00091261-03] | – | – | – | – | – | – | – | – | Efficacy (%) (confirmatory screen) ([1]; confirmatory screen): -127%; Confirm? (confirmatory screen) ([1]; confirmatory screen, YES/NO): YES; Curve Class (confirmatory screen) [1, 10]: -1.1; IC50 [1, 15]: 50.1 µM; Efficacy (%) [1, 17]: -59%; Curve Class [1, 18]: -2.2; IC50 [1, 19]: 113 µM; Efficacy (%) (counterscreen) ([2]; counterscreen): -105%; Curve Class (counterscreen) [2, 16]: -2.1; IC50 ([2]; counterscreen): 63.1 µM
18 | CC(=O)c1c(O)cc2cccc3c2c1CC(C)(O)O3 (centres unmarked) [NCGC00381142-01] | -2.2 | -84 | – | – | -2.1 | -99 | 39.8 | – | Confirm? (confirmatory screen) [1, 12]: YES; IC50 [1, 13]: 39.8 µM; Efficacy (%) [1, 17]: -51%; Curve Class [1, 18]: -2.2; IC50 [1, 19]: 50.1 µM
19 | O=c1c(O)c(-c2ccc(O)c(O)c2)oc2cc(O)cc(O)c12 [NCGC00015870-16] | – | – | – | – | – | – | – | – | Efficacy (%) (confirmatory screen) ([1]; confirmatory screen): -32%; Confirm? (confirmatory screen) ([1]; confirmatory screen, YES/NO): YES; Curve Class (confirmatory screen) [1, 10]: -2.4; Efficacy (%) (counterscreen) ([2]; counterscreen): -31%; Confirm? (counterscreen) ([2]; counterscreen, YES/NO): YES; Curve Class (counterscreen) [2, 16]: 4
20 | COc1c(O)cccc1[C@H](O)C1CCN(CCc2ccc(F)cc2)CC1 [NCGC00168042-01] | -2.4 | -89 | – | – | -2.1 | -83 | 50.1 | – | Confirm? (confirmatory screen) [1, 12]: YES; IC50 [1, 13]: 50.1 µM
21 | O=C(Nc1nc(-c2ccccc2)cs1)c1ccccc1NS(=O)(=O)c1ccc(F)cc1.O=C(O)C(F)(F)F [NCGC00247844-02] | 3 | 48 | -24 | 17.8 | – | 102 | 50.1 | -1.4 | –
22 | CN(C)CCCNC(=O)c1ccc(-c2cc(O)c3ncccc3c2)cc1 [NCGC00183808-06] | 4 | 0 | – | – | -2.4 | -38 | 70.8 | – | Confirm? (counterscreen) [2, 20]: YES
